From patent US7732468B2, “3-aryl-6-aryl-[ 1,2,4]triazolo[3,4-b][1,3,4]thiadiazoles and related compounds as activators of caspases and inducers of apoptosis and the use thereof” (Cytovia, Inc., priority 2006, dated 2010)

Tests used:
Format in all cases: cell-based
[1] = test system: human colon carcinoma cell line HCT116; assay: Inhibition of cell proliferation (GI50) in HCT116 cells; details: HCT 116 cells, 48 h incubation
Protocol: (§1) Human breast cancer cell lines T-47D, MX1 and MDAMB435, human colon carcinoma cell line HCT116, human leukemia cell line K562, human lymphoma cell line Raji, human B cell lymphoblastoid cell line Ramos, and human Burkitt's lymphoma cell line Namalwa were grown and harvested as in Example 14. An aliquot of […] of cells (4.4×10^4 cells/mL) was added to a well of a 96-well microtiter plate containing 5 μL of a 10% DMSO in RPMI-1640 media solution containing 10 nM to 100 μM of 6-(3,4-dimethoxyphenyl)-3-(2-methoxyphenyl)-[1,2,4]triazolo[3,4-b][1,3,4]thiadiazole (1 nM to 10 μM final). An aliquot of 45 μL of cells was added to a well of a 96-well microtiter plate containing 5 μL of a 10% DMSO in RPMI-1640 media solution without compound as the control sample for maximal cell proliferation (LMax). The samples were mixed by agitation and then incubated at 37° C. for 48 h in a 5% CO2-95% humidity incubator. After incubation, the samples were removed from the incubator and 25 μL of CellTiter-Glo™ reagent (Promega) was added. The samples were mixed by agitation and incubated at room temperature for 10-15 min. Plates were then read using a luminescent plate reader (Model SPECTRAfluor Plus, Tecan) to give Ltest values.
(§2) The samples were mixed by agitation and then incubated at 37° C. for 0.5 h in a 5% CO2-95% humidity incubator. After incubation, the samples were removed from the incubator and 25 μL of CellTiter-Glo™ reagent (Promega) was added. The samples were mixed by agitation and incubated at […] 10-15 min at room temperature in a 5% CO2-95% humidity incubator. Fluorescence was read as above, (LStart) defining luminescence for initial cell number used as baseline in GI50 determinations.
(§3) GI50 (dose for 50% inhibition of cell proliferation) is the concentration where [(LTest−LStart)/(LMax−LStart)]=0.5.

[2] = test system: human Burkitt's lymphoma cell line Namalwa; assay: Inhibition of cell proliferation (GI50) in Namalwa cells; details: Burkitts lymphoma cell, 48 h incubation
Protocol: as §1, §2, §3

[3] = test system: human hepatocellular carcinoma cell line SNU398; assay: Caspase cascade activation in SNU398 cells; details: SNU-398, 48 h incubation, read-out: caspase potency EC50 SNU398
Protocol: (§4) Human breast cancer cell lines T-47D, human hepatocellular carcinoma cell line SNU398, human colon carcinoma cell line HCT116, human cancer cell line H11299, human Burkitt's lymphoma cell line Namalwa, human lymphoma cell line Raji, and human B cell lymphoblastoid cell line Ramos were grown according to media component mixtures designated by American Type Culture Collection+10% FCS (Invitrogen Corporation), in a 5% CO2-95% humidity incubator at 37° C. T-47D and H1299 cells were maintained at a cell density between 50 and 80% confluency at a cell density of 0.1 to 0.6×10^6 cells/mL. Cells were harvested at 600×g and resuspended at 0.65×10^6 cells/mL into appropriate media+10% FCS. An aliquot of 22.5 μL of cells was added to a well of a 384-well microtiter plate containing 2.5 μL of a 10% DMSO in RPMI-1640 media solution containing 0.16 to 100 μM of 6-(3,4-dimethoxyphenyl)-3-(2-methoxyphenyl)-[1,2,4]triazolo[3,4-b][1,3,4]thiadiazole or other test compound (0.016 to 10 μM final). An aliquot of 22.5 μL of cells was added to a well of a 384-well microtiter plate containing 2.5 μL of a 10% DMSO in RPMI-1640 media solution without test compound as the control sample. The samples were mixed by agitation and then incubated at 37° C. for 48 h in a 5% CO2-95% humidity incubator. After incubation, the samples were removed from the incubator and 25 μL of a solution containing 14 μM of N-(Ac-DEVD)-N′-ethoxycarbonyl-R110 (SEQ ID No.:1) fluorogenic substrate (Cytovia, Inc.; WO99/18856), 20% sucrose (Sigma), 20 mM DTT (Sigma), 200 mM NaCl (Sigma), 40 mM Na PIPES buffer pH 7.2 (Sigma), and 500 μg/mL lysolecithin (Calbiochem) was added. The samples were mixed by agitation and incubated at room temperature. Using a fluorescent plate reader (Model SPECTRAfluor Plus, Tecan), an initial reading (T=0) was made approximately 1-2 min after addition of the substrate solution, employing excitation at 485 nm and emission at 530 nm, to determine the background fluorescence of the control sample. After the 3 h incubation, the samples were read for fluorescence as above (T=3 h).
(§5) The Relative Fluorescence Unit values (RFU) were used to calculate the sample readings as follows: RFU(T=3h)−Control RFU(T=0)=Net RFU(T=3h)
(§6) The activity of caspase cascade activation was determined by the ratio of the net RFU value for 6-(3,4-dimethoxyphenyl)-3-(2-methoxyphenyl)-[1,2,4]triazolo[3,4-b][1,3,4]thiadiazole (Example I) or other test compound to that of control samples. The EC50 (nM) was determined by a sigmoidal dose-response calculation (Prism 3.0, GraphPad Software Inc.).

[4] = test system: human lymphoma cell line Raji; assay: Caspase cascade activation in Raji cells; details: RAJ1 cells, 48 h incubation, read-out: caspase potency EC50 RAJ1
Protocol: as §4, §5, §6

[5] = test system: human leukemia cell line K562; assay: Inhibition of cell proliferation (GI50) in K562 cells; details: 48 h incubation
Protocol: as §1, §2, §3

[6] = test system: human colon carcinoma cell line HCT116; assay: Caspase cascade activation in HCT116 cells; details: HCT-116, 48 h incubation, read-out: caspase potency EC50 HCT116
Protocol: as §4, §5, §6

[7] = test system: human B cell lymphoblastoid cell line Ramos; assay: Inhibition of cell proliferation (GI50) in Ramos cells; details: 48 h incubation
Protocol: as §1, §2, §3

[8] = test system: human B cell lymphoblastoid cell line Ramos; assay: Caspase cascade activation in Ramos cells; details: 48 h incubation, read-out: caspase potency EC50 RAMOS
Protocol: as §4, §5, §6

[9] = test system: human lymphoma cell line Raji; assay: Inhibition of cell proliferation (GI50) in Raji cells; details: 48 h incubation
Protocol: as §1, §2, §3

[10] = test system: Human breast cancer cell lines T-47D; assay: Caspase cascade activation (Ac-DEVD-R110 fluorogenic substrate) in T-47D cells; details: T47D cells, 48 h incubation, read-out: caspase potency EC50 T47D
Protocol: as §4, §5, §6

[11] = test system: human Burkitt's lymphoma cell line Namalwa; assay: Caspase cascade activation in Namalwa cells; details: Burkitts lymphoma cell, 48 h incubation, read-out: caspase potency EC50 Namalwa
Protocol: as §4, §5, §6

## CCN(CC)c1ccc(-c2nn3c(-c4ccccc4Cl)nnc3s2)cc1 [Entry G1, 3-(2-Chlorophenyl)-6-(4-diethylaminophenyl)-[1,2,4]triazolo[3,4-b][1,3,4]thiadiazole]
[1]
  GI50: 0.492 µM
[2]
  GI50: 0.149 µM
[3]
  EC50: 0.455 µM
[4]
  EC50: 0.627 µM
[5]
  GI50: 0.155 µM
[6]
  EC50: 1.38 µM
[7]
  GI50: 0.041 µM
[8]
  EC50: 0.575 µM
[9]
  GI50: 0.405 µM
[10]
  EC50: 0.584 µM
[11]
  EC50: 0.593 µM

## COc1cccc(-c2nnc3sc(-c4ccc(N(C)C)cc4)nn23)c1 [Entry D1, 6-(4-Dimethylaminophenyl)-3-(3-methoxyphenyl)-1-[1,2,4]triazolo[3,4-b][1,3,4]thiadiazole]
[1]
  GI50: 6.83 µM
[2]
  GI50: 1.13 µM
[3]
  EC50: 1.65 µM
[4]
  EC50: 1.41 µM
[5]
  GI50: 1.02 µM
[6]
  EC50: 2.27 µM
[7]
  GI50: 0.647 µM
[8]
  EC50: 1.25 µM
[9]
  GI50: 2.6 µM
[10]
  EC50: 1.39 µM
[11]
  EC50: 1.29 µM

## COc1ccc(-c2nn3c(-c4cc(OC)c(OC)c(OC)c4)nnc3s2)cc1OC [V, 6-(3,4-Dimethoxyphenyl)-3-(3,4,5-trimethoxyphenyl)-[1,2,4]triazolo[3,4-b][1,3,4]thiadiazole]
[1]
  GI50: 5 µM
[2]
  GI50: > 10 µM
[3]
  EC50: > 10 µM
[4]
  EC50: > 10 µM
[5]
  GI50: 1.6 µM
[6]
  EC50: > 10 µM
[7]
  GI50: 3.65 µM
[8]
  EC50: 2.32 µM
[9]
  GI50: 5 µM
[10]
  EC50: > 10 µM
[11]
  EC50: > 10 µM

## Cc1cccc(-c2nn3c(-c4ccc(Cl)cc4Cl)nnc3s2)c1 [K, 3-(2,4-Dichlorophenyl)-6-m-tolyl-[1,2,4]triazolo[3,4-b][1,3,4]thiadiazole]
[1]
  GI50: 0.4 µM
[2]
  GI50: 0.559 µM
[3]
  EC50: 0.482 µM
[4]
  EC50: 0.505 µM
[5]
  GI50: 0.379 µM
[6]
  EC50: 0.661 µM
[7]
  GI50: 0.123 µM
[8]
  EC50: 0.387 µM
[9]
  GI50: 0.5 µM
[10]
  EC50: 0.607 µM
[11]
  EC50: 0.469 µM

## COc1ccc(-c2nn3c(-c4cc(OC)c(OC)c(OC)c4)nnc3s2)cc1 [Entry S, 6-(4-Methoxyphenyl)-3-(3,4,5-trimethoxyphenyl)-[1,2,4]triazolo[3,4-b][1,3,4]thiadiazole]
[1]
  GI50: > 10 µM
[2]
  GI50: > 10 µM
[3]
  EC50: > 10 µM
[4]
  EC50: > 10 µM
[5]
  GI50: 1.46 µM
[6]
  EC50: > 10 µM
[7]
  GI50: 4.99 µM
[8]
  EC50: 2.44 µM
[9]
  GI50: > 10 µM
[10]
  EC50: 2.42 µM
[11]
  EC50: > 10 µM

## CN(C)c1ccc(-c2nn3c(-c4ccccc4Cl)nnc3s2)cc1 [Entry E1, 3-(2-Chlorophenyl)-6-(4-dimethylaminophenyl)-[1,2,4]triazolo[3,4-b][1,3,4]thiadiazole]
[1]
  GI50: 2.04 µM
[2]
  GI50: 0.167 µM
[3]
  EC50: 0.556 µM
[4]
  EC50: 0.573 µM
[5]
  GI50: 0.332 µM
[6]
  EC50: 1.2 µM
[7]
  GI50: 0.146 µM
[8]
  EC50: 0.325 µM
[9]
  GI50: 0.519 µM
[10]
  EC50: 1.09 µM
[11]
  EC50: 0.327 µM

## COc1cc(-c2nnc3sc(-c4ccco4)nn23)cc(OC)c1OC [R, 6-(Furan-2-yl)-3-(3,4,5-trimethoxyphenyl)-[1,2,4]triazolo[3,4-b][1,3,4]thiadiazole]
[1]
  GI50: 1.5 µM
[2]
  GI50: 0.45 µM
[3]
  EC50: 0.183 µM
[4]
  EC50: 0.253 µM
[5]
  GI50: 0.15 µM
[6]
  EC50: 0.216 µM
[7]
  GI50: 0.442 µM
[8]
  EC50: 0.241 µM
[9]
  GI50: 0.651 µM
[10]
  EC50: 0.203 µM
[11]
  EC50: 0.244 µM

## COc1cc(-c2nnc3sc(-c4ccc(C)c(C)c4)nn23)cc(OC)c1OC [Entry T, 6-(3,4-Dimethylphenyl)-3-(3,4,5-trimethoxyphenyl)-[1,2,4]triazolo[3,4-b][1,3,4]thiadiazole]
[1]
  GI50: 0.906 µM
[2]
  GI50: 0.5 µM
[3]
  EC50: 0.297 µM
[4]
  EC50: 0.49 µM
[5]
  GI50: 0.131 µM
[6]
  EC50: 0.336 µM
[7]
  GI50: 0.137 µM
[8]
  EC50: 0.314 µM
[9]
  GI50: 0.559 µM
[10]
  EC50: 0.517 µM
[11]
  EC50: 0.611 µM

## Cc1ccccc1-c1nnc2sc(-c3ccc(N(C)C)cc3)nn12 [Entry I1, 6-(4-Dimethylaminophenyl)-3-o-tolyl-[1,2,4]triazolo[3,4-b][1,3,4]thiadiazole]
[1]
  GI50: 1.19 µM
[2]
  GI50: 0.142 µM
[3]
  EC50: 0.596 µM
[4]
  EC50: 0.634 µM
[5]
  GI50: 0.35 µM
[6]
  EC50: 1.33 µM
[7]
  GI50: 0.093 µM
[8]
  EC50: 0.558 µM
[9]
  GI50: 0.253 µM
[10]
  EC50: 0.864 µM
[11]
  EC50: 0.51 µM

## COc1cc(-c2nnc3sc(-c4ccc(C)cc4)nn23)cc(OC)c1OC [Entry B1, 6-p-Tolyl-3-(3,4,5-trimethoxyphenyl)-[1,2,4]triazolo[3,4-b][1,3,4]thiadiazole]
[1]
  GI50: 1 µM
[2]
  GI50: 0.253 µM
[3]
  EC50: 0.494 µM
[4]
  EC50: 0.678 µM
[5]
  GI50: 0.303 µM
[6]
  EC50: 0.647 µM
[7]
  GI50: 0.119 µM
[8]
  EC50: 0.379 µM
[9]
  GI50: 0.549 µM
[10]
  EC50: 1.54 µM
[11]
  EC50: 0.356 µM

## COc1cccc(-c2nn3c(-c4cc(OC)c(OC)c(OC)c4)nnc3s2)c1 [U, 6-(3-Methoxyphenyl)-3-(3,4,5-trimethoxyphenyl)-[1,2,4]triazolo[3,4-b][1,3,4]thiadiazole]
[1]
  GI50: > 10 µM
[2]
  GI50: > 10 µM
[3]
  EC50: > 10 µM
[4]
  EC50: > 10 µM
[5]
  GI50: 2.77 µM
[6]
  EC50: > 10 µM
[7]
  GI50: 2.69 µM
[8]
  EC50: > 10 µM
[9]
  GI50: 4.64 µM
[10]
  EC50: 2.74 µM
[11]
  EC50: > 10 µM

## Clc1ccccc1-c1nnc2sc(-c3ccc4c(c3)OCCO4)nn12 [Q, 3-(2-Chlorophenyl)-6-(3,4-ethylenedioxyphenyl)-[1,2,4]triazolo[3,4-b][1,3,4]thiadiazole]
[1]
  GI50: 6.04 µM
[2]
  GI50: 2.04 µM
[3]
  EC50: 2.12 µM
[4]
  EC50: 0.688 µM
[5]
  GI50: 1.88 µM
[6]
  EC50: 2.67 µM
[7]
  GI50: 1.3 µM
[8]
  EC50: 0.532 µM
[9]
  GI50: 6.73 µM
[10]
  EC50: 2.45 µM
[11]
  EC50: 0.552 µM
